Literature values as cited in patent publication US20210268011A1, “AMPK ACTIVATING AGENT” (ORYZA OIL & FAT CHEMICAL CO., LTD., priority 2018, published 2021).

System: AMPK
Conditions: recent research, Non-patent Document 4; cited from earlier work

CN(C)C(=N)N=C(N)N [metformin]
AMPK activation: activated
